Laboratory results from US9288989B2, “Synergistic weed control from applications of penoxsulam and acetochlor” (Dow AgroSciences LLC, priority 2013, dated 2016).
Where “and” joins values, the source holds several entries; their conditions need not be identical. Identical values can stand only once.

Legend:
POLCO = assay: Pre-emergence field trial, weed control, POLCO; assay type: in vivo, Polygonum convolvulus L.
From the text: (§1) The (a) penoxsulam or an agriculturally acceptable salt thereof is mixed with or applied in combination with (b) acetochlor or an agriculturally acceptable salt thereof in an amount sufficient to induce a synergistic herbicidal effect. […] As described in the Herbicide Handbook of the Weed Science Society of America, Ninth Edition, 2007, p. 429, “‘synergism’ [is] an interaction of two or more factors such that the effect when combined is greater than the predicted effect based on the response to each factor applied separately.” Synergistic in the herbicide context can mean that the use of (a) and (b) as defined above results in an increased weed control effect compared to the weed control effects that are possible with the use of (a) or (b) alone. In some embodiments, the damage or injury to the undesired vegetation caused by the compositions and methods disclosed herein is evaluated using a scale from 0% to 100%, when compared with the untreated control vegetation, wherein 0% indicates no damage to the undesired vegetation and 100% indicates complete destruction of the undesired vegetation.
(§2) In Colby's equation, the value E corresponds to the effect (plant damage or injury) that is to be expected if the activity of the individual compounds is additive. If the observed effect is higher than the value E calculated according to the Colby equation, then a synergistic effect is present according to the Colby equation.
(§3) Field trials were conducted with applications made in the area of naturally occurring weed populations in multiple countries. The soil or water was treated prior to the emergence of target plants. All treatments were applied using a randomized complete block trial design, with 3-5 replications per treatment.
(§4) Treatments consisted of penoxsulam and acetochlor applied alone and in combination. Spray solutions were prepared using an appropriate amount of dilution to treat the area of the plots based on use rates and water volumes necessary based on a per hectare basis. Spray solutions were prepared and applied with the specified active ingredients in single and two-way combinations to be able to perform Colby synergy and safening calculations. Formulated products were applied to the soil with a backpack sprayer equipped with flat fan nozzles calibrated to deliver from 200 to 300 L/ha at a normal spray height above the soil, at spray pressures ranging from 200 to 400 kilopascals (kPa). Formulated products were applied into flooded rice paddy by calculating the area to be treated, calculating the amount of active ingredient necessary to treat the area at the specified rates, then mixing the treatments in water to apply 8 L/ha of water to the plots.
(§5) Colby's equation was used to determine the herbicidal effects expected from the mixtures, as described above. The results were measured at the evaluation intervals provided in Table 1 after the first application of the compositions. […] The herbicide tank-mix combinations tested, application rates and ratios employed, plant species tested, and results are given below.

CYPRO = assay: Pre-emergence field trial, weed control, CYPRO; assay type: in vivo, Cyperus rotundus L.; details: 35 days
Procedure: (§6) The (a) penoxsulam or an agriculturally acceptable salt thereof is mixed with or applied in combination with (b) acetochlor or an agriculturally acceptable salt thereof in an amount sufficient to induce a synergistic herbicidal effect. […] As described in the Herbicide Handbook of the Weed Science Society of America, Ninth Edition, 2007, p. […] In some embodiments, the damage or injury to the undesired vegetation caused by the compositions and methods disclosed herein is evaluated using a scale from 0% to 100%, when compared with the untreated control vegetation, wherein 0% indicates no damage to the undesired vegetation and 100% indicates complete destruction of the undesired vegetation.
as §2, with “equation. […]” for “equation.”
(§7) Colby's equation was used to determine the herbicidal effects expected from the mixtures, as described above. The results were measured at the evaluation intervals provided in Table 1 after the first application of the compositions. […]

CHEAL = assay: Pre-emergence field trial, weed control, CHEAL; assay type: in vivo, Chenopodium album L.
From the text: as §1, §2, §3
as §4, with “Formulated products were applied into flooded rice paddy by calculating the area to be treated, calculating the amount of active ingredient necessary to treat the area at the specified rates, then mixing the treatments in water to apply 8 L/ha of water to the plots.” left out
as §7

ECHCO = assay: Pre-emergence field trial, weed control, ECHCO; assay type: in vivo, Echinochloa colonum (L.) Link
From the text: as §1, §2, §3, §4, §5

SOLNI = assay: Pre-emergence field trial, weed control, SOLNI; assay type: in vivo, Solanum nigrum
From the text: as §1, §2, §3
as §4, with “Formulated products were applied into flooded rice paddy by calculating the area to be treated, calculating the amount of active ingredient necessary to treat the area at the specified rates, then mixing the treatments in water to apply 8 L/ha of water to the plots.” left out
as §7

AMARE = assay: Pre-emergence field trial, weed control, AMARE; assay type: in vivo, Amaranthus retroflexus; details: 55 days
Procedure: as §6
as §2, with “equation. […]” for “equation.”
as §7

GALAP = assay: Pre-emergence field trial, weed control, GALAP; assay type: in vivo, Galium aparine L.
From the text: as §1, §2, §3
as §4, with “Formulated products were applied into flooded rice paddy by calculating the area to be treated, calculating the amount of active ingredient necessary to treat the area at the specified rates, then mixing the treatments in water to apply 8 L/ha of water to the plots.” left out
as §7

POLLA = assay: Pre-emergence field trial, weed control, POLLA; assay type: in vivo, Polygonum lapathifolium L.
From the text: as §1, §2, §3, §4, §5

TRBSS = assay: Pre-emergence field trial, weed control, TRBSS; assay type: in vivo, species of the genus Tribulus
From the text: as §1, §2, §3, §4, §5

POLPE = assay: Pre-emergence field trial, weed control, POLPE; assay type: in vivo, Polygonum persicaria L.; details: 14 days
Procedure: as §6
as §2, with “equation. […]” for “equation.”
as §7

VIOAR = assay: Pre-emergence field trial, weed control, VIOAR; assay type: in vivo, Viola arvensis Murr.; details: 61 days
Procedure: as §6
as §2, with “equation. […]” for “equation.”
as §7

corn (ZEAMX) = assay: Pre-emergence field trial, crop injury, corn; details: in vivo
Procedure: as §6
as §2, with “equation. […]” for “equation.”
Colby's equation was used to determine the herbicidal effects expected from the mixtures, as described above. The results were measured at the evaluation intervals provided in Table 2 after the first application of the compositions. […]

[1] = 28 days, acetochlor 2300 g ai/ha
[2] = 64 days, acetochlor 1900 g ai/ha

COc1cnc(OC)n2nc(NS(=O)(=O)c3c(OCC(F)F)cccc3C(F)(F)F)nc12 [Penoxsulam]
Mean % weed control (POLCO; 14 days, penoxsulam 15 g ai/ha): 85% | Mean % weed control (POLCO; 14 days, penoxsulam 20 g ai/ha): 87.5% | Mean % weed control (POLCO; 28 days, penoxsulam 15 g ai/ha): 65% | Mean % weed control (POLCO; 28 days, penoxsulam 20 g ai/ha): 77.5% | Mean % weed control (CYPRO; penoxsulam 20 g ai/ha): 39.38% | Mean % weed control (CHEAL; 34 days, penoxsulam 20 g ai/ha): 56.67% | Mean % weed control (CHEAL; 61 days, penoxsulam 20 g ai/ha): 50% | Mean % weed control (ECHCO; 20 days, penoxsulam 15 g ai/ha): 38.75% | Mean % weed control (ECHCO; 20 days, penoxsulam 20 g ai/ha): 50% | Mean % weed control (ECHCO; 35 days, penoxsulam 15 g ai/ha): 55% | Mean % weed control (SOLNI; 64 days, penoxsulam 20 g ai/ha): 40% | Mean % weed control (SOLNI; 92 days, penoxsulam 20 g ai/ha): 30% | Mean % weed control (AMARE; penoxsulam 12 g ai/ha): 30% | Mean % weed control (GALAP; 38 days, penoxsulam 20 g ai/ha): 40% | Mean % weed control (GALAP; 64 days, penoxsulam 20 g ai/ha): 60% | Mean % weed control (POLLA; 14 days, penoxsulam 15 g ai/ha): 85% | Mean % weed control (POLLA; 28 days, penoxsulam 15 g ai/ha): 75% | Mean % weed control (POLLA; 28 days, penoxsulam 20 g ai/ha): 90% | Mean % weed control (POLLA; 98 days, penoxsulam 15 g ai/ha): 71.25% | Mean % weed control (TRBSS; 35 days, penoxsulam 5 g ai/ha): 32% | Mean % weed control (TRBSS; 35 days, penoxsulam 10 g ai/ha): 38.5% | Mean % weed control (TRBSS; 49 days, penoxsulam 5 g ai/ha): 13% | Mean % weed control (TRBSS; 49 days, penoxsulam 10 g ai/ha): 32% | Mean % weed control (POLPE; penoxsulam 20 g ai/ha): 80% | Mean % weed control (VIOAR; penoxsulam 20 g ai/ha): 0%

CCOCN(C(=O)CCl)c1c(C)cccc1CC [Acetochlor, 2-chloro-N-(ethoxymethyl)-N-(2-ethyl-6-methylphenyl)acetamide]
Mean % weed control (POLCO; [1]): 5% and 12.5% | Mean % weed control (CYPRO; acetochlor 15 g ai/ha): 4.25% | Mean % weed control (CHEAL; 34 days, acetochlor 1400 g ai/ha): 3.33% | Mean % weed control (CHEAL; 61 days, acetochlor 1400 g ai/ha): 36.67% | Mean % weed control (ECHCO; 20 days, acetochlor 15 g ai/ha): 22.5% | Mean % weed control (ECHCO; 35 days, acetochlor 15 g ai/ha): 15% | Mean % weed control (SOLNI; [2]): 13.33% | Mean % weed control (SOLNI; 92 days, acetochlor 1900 g ai/ha): 3.33% | Mean % weed control (AMARE; acetochlor 2000 g ai/ha): 0% | Mean % weed control (GALAP; 38 days, acetochlor 1900 g ai/ha): 6.67% | Mean % weed control (GALAP; [2]): 10% | Mean % weed control (POLLA; 14 days, acetochlor 2300 g ai/ha): 20% | Mean % weed control (POLLA; [1]): 10% and 7.5% | Mean % weed control (POLLA; 98 days, acetochlor 2300 g ai/ha): 12.5% | Mean % weed control (TRBSS; 35 days, acetochlor 1800 g ai/ha): 78% | Mean % weed control (TRBSS; 49 days, acetochlor 1800 g ai/ha): 63% | Mean % crop injury (corn (ZEAMX)): 0% | Mean % weed control (POLPE; acetochlor 1400 g ai/ha): 36.67% | Mean % weed control (VIOAR; acetochlor 1400 g ai/ha): 0%
